From patent publication US8476255B2, “Histone deacetylase inhibitors” (Orchid Chemicals & Pharmaceuticals Limited, priority 2007, dated 2013) come the findings set out here.

Each structure is given as a SMILES string.

One assay relates to acetylated Tubulin. Kind of assay: Tubulin acetylation, sandwich ELISA in HCT116 lysate. It is filed as cell-based. The note with it: HCT116, 4 hours. As to the method:
(§1) Acetylated histone (H3), acetylated Tubulin and p21 levels were detected in cell lysate by sandwich ELISA method (Cell Signaling Technology, USA, Cat No: 7232, 7204 & 7167 respectively) by following manufacturer's instructions. Briefly, colon cancer cells (HCT116. 10,000/well) were incubated with test compound (1 and 10 μM) or medium (control) for 4 hours at 37° C. in CO2 incubator. The incubation lasted 18 hours for p21 induction. After incubation, cell lysates were prepared in cell lysis buffer by sonication on ice. The lysates were collected after centrifugation and subjected to ELISA test procedure. 100 μL of each diluted cell lysate in dilution buffer (1:1) was added to appropriate capture antibody coated microwells and incubated overnight at 4° C. After washing, 100 μL of detection antibody was added for 1 hour at 37° C. After second washing, 100 μL of HRP-linked secondary antibody was added for 30 min at 37° C. Finally, after appropriate washing, 100 μL of TMB substrate was added for 10 min at 37° C. followed by 100 μL of stop solution. The absorbance of individual wells was read using a spectrophotometer at 450 nm (A450).

The subject of another assay is HCT 116 (colon) cells. Kind of assay: Anti-cancer screen (MTT), HCT 116. In kind it is cell-based. The note with it: Homo sapiens, HCT-116, HCT116, 48 hours, MTT. The procedure, abridged: (§2)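 5×10^4 cells/mL, DMEM + 10% FBS, 24 h attach, 37 °C/5% CO2. Cpds 0.01–100 μM (5 conc., triplicate), 48 h. MTT 3 h → DMSO → A570; T0 plate read at dosing.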
In assay [1] the test system is HDAC (Mouse Liver Extract). Kind of assay: HDAC inhibition assay using Boc-Lys(Ac)-AMC substrate. It is filed as biochemical. The note with it: mouse liver enzyme. A digest of the protocol: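 Released AMC measured at 360 nm excitation, 460 nm emission after 15-30 min trypsin development at 37° C. Preceding deacetylation: mouse liver extract with acetylated-lysine AMC substrate, 30 min at 37° C after 5-min preincubation; blanks were buffer alone and substrate alone.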

In a further assay the target is recombinant HDAC1 enzyme (Homo sapiens (Human), UniProt Q13547). Kind of assay: HDAC1 inhibitory activity (isoform selectivity). It is filed as biochemical. The note with it: read-out: HDAC1 inhibition (IC50). The procedure: The assay was carried out, as previously described using recombinant HDAC1 enzyme (BIOMOL, USA) and following manufacturer's instructions.
Sequence of recombinant HDAC1 enzyme (Q13547 whole entry, canonical isoform): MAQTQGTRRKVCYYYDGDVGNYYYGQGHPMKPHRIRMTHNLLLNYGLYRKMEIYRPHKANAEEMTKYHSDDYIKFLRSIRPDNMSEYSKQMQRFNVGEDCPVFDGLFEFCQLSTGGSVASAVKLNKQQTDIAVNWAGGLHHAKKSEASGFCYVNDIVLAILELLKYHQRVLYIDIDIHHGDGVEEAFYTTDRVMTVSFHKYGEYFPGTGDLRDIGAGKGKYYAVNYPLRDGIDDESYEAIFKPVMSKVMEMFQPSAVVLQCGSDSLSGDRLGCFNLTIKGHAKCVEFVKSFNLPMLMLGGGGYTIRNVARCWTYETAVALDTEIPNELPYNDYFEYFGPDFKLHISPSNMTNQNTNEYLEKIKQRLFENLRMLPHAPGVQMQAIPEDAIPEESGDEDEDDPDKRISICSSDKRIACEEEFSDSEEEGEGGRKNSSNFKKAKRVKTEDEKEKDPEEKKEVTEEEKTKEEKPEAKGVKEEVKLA

The subject of a further assay is NCIH460 (lung) cells. Kind of assay: Anti-cancer screen (MTT), NCIH460. It is filed as cell-based. The note with it: Homo sapiens, NCI-H460, NCIH460, 48 hours, MTT. A digest of the protocol:
as §2

For another assay, the system named is Acetylated histone (H3). Kind of assay: Histone (H3) acetylation, sandwich ELISA in HCT116 lysate. It is filed as cell-based. The note with it: HCT116, 4 hours. As to the method:
as §1
For orientation: ELISA stands for enzyme-linked immunosorbent assay.

The test system of the next assay is U251 (glioma) cells. Kind of assay: Anti-cancer screen (MTT), U251. In kind it is cell-based. To be noted: Homo sapiens, U-251, U251, 48 hours, MTT. A digest of the protocol:
as §2

Another assay concerns p21. Briefly: p21 induction, sandwich ELISA in HCT116 lysate. In kind it is cell-based. The note with it: HCT116, 18 hours. As to the method: as §1
Assay [2] deals with NCIH460, HCT116 and U251 cells. Briefly: Anti-cancer screen, mean GI50 over cell lines. In kind it is cell-based. To be noted: mean over cell lines; read-out: Cell growth inhibition Mean GI50. The procedure, abridged:
as §2

Turning to `COc1ccc(/C=C(/C(=O)NCc2ccc(C(=O)Nc3ccccc3N)cc2)c2ccccc2F)cc1OC` [Compound 28, N-(2-Aminophenyl)-4-((3-(3,4-dimethoxyphenyl)-2-(2-fluorophenyl)acrylamido)methyl)benzamide], the results for the “Tubulin acetylation (Fold increase)” value with acetylated Tubulin (1 μM) and in the assay on acetylated Tubulin (10 μM) were 1.9 Fold increase and 6.2 Fold increase, respectively. Moreover, the concentration for 50% growth inhibition (GI50) in the assay with HCT 116 (colon) cells (read-out: Cell growth inhibition HCT116 (Colon) GI50) amounted to 0.1 µM; in the assay with NCIH460 (lung) cells (read-out: Cell growth inhibition NCIH460 (Lung) GI50), 1 µM; with U251 (glioma) cells (read-out: Cell growth inhibition U251 (Glioma) GI50), 5.5 µM; in assay [2], 2.2 µM. For the same compound, the CC50 with HCT 116 (colon) cells (read-out: Cell growth inhibition HCT116 (Colon) LC50) is above 100 µM. The IC (TGI) in the assay on HCT 116 (colon) cells (read-out: Cell growth inhibition HCT116 (Colon) TGI), with NCIH460 (lung) cells (read-out: Cell growth inhibition NCIH460 (Lung) TGI) and in the assay with U251 (glioma) cells (read-out: Cell growth inhibition U251 (Glioma) TGI) was above 100 µM throughout. In addition, in assay [1] (1 μM), the “HDAC inhibition % (1 μM)” value is 41.3%. In addition, in assay [1] (10 μM), the “HDAC inhibition % (10 μM)” value is recorded as 65.6%. The IC50 in assay [1] turned out to be 9.5 µM; on recombinant HDAC1 enzyme it was 0.036 µM. The LC50 in the assay with NCIH460 (lung) cells (read-out: Cell growth inhibition NCIH460 (Lung) LC50) is above 100 µM. In addition, the “H3 acetylation (Fold increase)” value stood at 1.1 Fold increase in the assay on Acetylated histone (H3) (1 μM) and 5.6 Fold increase with Acetylated histone (H3) (10 μM). Also, in the assay on U251 (glioma) cells (read-out: Cell growth inhibition U251 (Glioma) LC50), the LC50 (concentration giving 50% net cell kill relative to the time-zero cell count) was above 100 µM. Besides, the entries for the “P21 induction (Fold increase)” value in the assay on p21 (1 μM) and with p21 (10 μM) were 1.5 Fold increase and 2.5 Fold increase, respectively.

Usually GI50 stands for the concentration at which growth is held to half of that of the control. As usually defined, the IC50 is the point on the concentration scale where inhibition reaches its midpoint. The LC50 is the concentration lethal to half of the exposed cells or organisms.
